From patent EP4656642A1, “ESTROGEN RECEPTOR PROTEOLYSIS TARGETING CHIMERA COMPOUND AND USE THEREOF” (GAN & LEE PHARM CO., LTD, priority 2023, dated 2024)

Experiments:
Format in all cases: cell-based
ERα [1] = molecular target: T1, ERα (Homo sapiens, UniProt P03372); test: Degradation of ERα in MCF-7 cells (immunoblotting, 4 h)
T1 sequence (P03372 1-595): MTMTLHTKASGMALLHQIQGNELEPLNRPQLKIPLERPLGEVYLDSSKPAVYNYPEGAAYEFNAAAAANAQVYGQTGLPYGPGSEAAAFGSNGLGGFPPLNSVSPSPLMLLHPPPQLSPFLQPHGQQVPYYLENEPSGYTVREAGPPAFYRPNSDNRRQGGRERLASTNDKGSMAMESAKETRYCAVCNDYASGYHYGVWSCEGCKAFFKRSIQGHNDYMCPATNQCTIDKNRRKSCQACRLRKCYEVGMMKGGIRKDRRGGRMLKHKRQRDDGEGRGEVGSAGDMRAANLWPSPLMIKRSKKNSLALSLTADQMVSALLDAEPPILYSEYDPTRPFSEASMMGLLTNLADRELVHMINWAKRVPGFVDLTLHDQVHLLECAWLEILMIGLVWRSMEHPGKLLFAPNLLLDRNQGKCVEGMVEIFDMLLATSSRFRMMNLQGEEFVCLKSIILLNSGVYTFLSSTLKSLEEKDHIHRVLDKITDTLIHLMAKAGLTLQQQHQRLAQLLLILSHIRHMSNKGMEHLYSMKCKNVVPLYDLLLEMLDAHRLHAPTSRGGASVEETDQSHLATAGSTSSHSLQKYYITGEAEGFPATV
Summary of the method: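 MCF-7 cells treated 4 h at 37°C with compounds at 0.15-1000nM final. ERα in lysates measured by immunoblot, with band grayscale normalized to an internal reference protein. Degradation rate calculated against DMSO-treated control.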

ERα [2] = molecular target: T1, ERα; test: Degradation of ERα in T-47D cells (immunoblotting, 4 h); design: host or cells: T-47D
Summary of the method: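 T-47D cells were treated with compound (final 0.15-1000 nM, DMSO) for 4 h at 37°C, 5% CO2. Cells were lysed in RIPA buffer with protease inhibitor, and ERα protein in the cleared lysate was measured by immunoblotting.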

MCF-7 cells = test: Inhibition of cell proliferation of MCF-7 cells (CCK-8, 9 days)
Summary of the method: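 MCF-7 cells seeded at 800 cells/well in DMEM with 10% FBS, exposed to a range of compound concentrations for 9 days at 37°C, 5% CO2. Viability read by CCK-8; IC50 derived for proliferation inhibition.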

T-47D cells = test: Inhibition of cell proliferation in T-47D cells (CCK-8, 6 days); conditions: 6 days of treatment
Summary of the method: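 T-47D cells at 3,000 cells/well in RPMI 1640 with 10% FBS were exposed to a concentration series of PROTAC compounds for 6 days at 37 °C, 5% CO2. Viability was read by CCK-8, and IC50 values were derived for proliferation inhibition.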

[3] = treated for 9 days, CCK-8 kit (Table 6)

SMILES | Degradation rate (%) of ERα in MCF-7 cells (ERα [1]; 1nM compound) | Degradation rate (%) of ERα in MCF-7 cells (ERα [1]; 10nM compound) | Degradation rate (%) of ERα in T-47D cells (ERα [2]; 1nM compound) | Degradation rate (%) of ERα in T-47D cells (ERα [2]; 10nM compound) | IC50 (MCF-7 cells; [3]) | IC50 (T-47D cells; Table 3) | IC50 (MCF-7 cells; 9 days of treatment, CCK-8, Table 5) | IC50 (T-47D cells; Table 2)
O=C1CCC(N2Cc3c(ccc4c3OCC43CCN(C4CCN(CC5CCN(c6ccc([C@@H]7c8ccc(O)cc8CC[C@@H]7c7ccccc7)cc6)CC5)C(=O)C4)CC3)C2=O)C(=O)N1 (stereo partly drawn) [A116] | 25% | 4% | 28% | 23% | 25200 nM | 1.61 nM |  | 
O=C1CCC(N2C(=O)c3cc4c(cc3C2=O)OC2(CC4)CCN(CC3CCC4(CC3)CCN(c3ccc([C@@H]5c6ccc(O)cc6CC[C@@H]5c5ccccc5)cc3)CC4)CC2)C(=O)N1 (stereo partly drawn) [A43] | -2% | -8% | 7% | 26% | 62 nM | 41 nM |  | 
O=C1CCC(N2Cc3ccc4c(c3C2=O)OC2(CC4)CCN(C3CCC4(CC3)CCN(c3ccc([C@@H]5c6ccc(O)cc6CC[C@@H]5c5ccccc5)cc3)CC4)CC2)C(=O)N1 (stereo partly drawn) [L1] | -2% | -29% | -9% | -45% |  |  | 130 nM | 5.2 nM
O=C1CCC(N2Cc3cc4c(cc3C2=O)CCC2(CN(C3CCN(C5CCN(c6ccc([C@@H]7c8ccc(O)cc8CC[C@@H]7c7ccccc7)cc6)CC5)CC3)C2)O4)C(=O)N1 (stereo partly drawn) [A53] | 10% | 45% | 37% | 66% | < 0.256 nM | 3.87 nM |  | 
O=C1CCC(N2Cc3c(ccc4c3OCC43CCN(C4CCN(C5CC6(CCN(c7ccc([C@@H]8c9ccc(O)cc9CC[C@@H]8c8ccccc8)cc7)CC6)C5)[C@@H](C(=O)NC5CC5)C4)CC3)C2=O)C(=O)N1 (stereo partly drawn) [K27] | 71% | 86% | 69% | 88% | 33.1 nM | 1.05 nM |  | 
O=C1CCC(N2Cc3c(ccc4c3OCC43CCN(C(=O)C4CCN(C5CCN(c6ccc([C@@H]7c8ccc(O)cc8CC[C@@H]7c7ccccc7)cc6)CC5)CC4)CC3)C2=O)C(=O)N1 (stereo partly drawn) [K7] | 55% | 64% | 63% | 79% | 10.6 nM | 1.41 nM |  | 
O=C1CCC(N2Cc3cc4c(cc3C2=O)CCC2(CN(CC3CCC5(CC3)CN(c3ccc([C@@H]6c7ccc(O)cc7CC[C@@H]6c6ccccc6)cc3)C5)C2)O4)C(=O)N1 (stereo partly drawn) [M15] | -23% | -24% | -15% | 13% | 48 nM | 6 nM |  | 
O=C1CCC(N2Cc3c(ccc4c3OCC43CCN(C(=O)CC4CCN(c5ccc([C@@H]6c7ccc(O)cc7CC[C@@H]6c6ccccc6)cc5)CC4)CC3)C2=O)C(=O)N1 (stereo partly drawn) [H16] | 9% | 37% | 48% | 69% | 9770 nM | 5.7 nM |  | 
CN(C1CCN(c2ccc([C@@H]3c4ccc(O)cc4CC[C@@H]3c3ccccc3)cc2)CC1)[C@H]1CC[C@H](C(=O)N2CCC3(CC2)COc2c3ccc3c2CN(C2CCC(=O)NC2=O)C3=O)CC1 (stereo partly drawn) [N2] | -7% | -8% | 10% | 42% | 247 nM | 3.63 nM |  | 
O=C1CCC(N2Cc3cc4c(cc3C2=O)OC2(CC4)CN(C3CCN(C(=O)c4ccc([C@@H]5c6ccc(O)cc6CC[C@@H]5c5ccccc5)cc4)CC3)C2)C(=O)N1 (stereo partly drawn) [H11] | -39% | -41% | -16% | 8% | 24100 nM | 124 nM |  | 
O=C1CCC(N2Cc3c(ccc4c3OCC43CCN(C(=O)c4ccc(CN5CCN(c6ccc([C@@H]7c8ccc(O)cc8CC[C@@H]7c7ccccc7)cc6)CC5)cc4)CC3)C2=O)C(=O)N1 (stereo partly drawn) [B39] | 41% | 49% | 47% | 66% | 25100 nM | 1.83 nM |  | 
C[C@@H]1Cc2c([nH]c3ccccc23)[C@@H](c2c(F)cc(N3CCC(C(=O)N4CCC(N5CCC6(CC5)COc5c6ccc6c5CN(C5CCC(=O)NC5=O)C6=O)CC4)CC3)cc2F)N1CC(F)F (stereo partly drawn) [A106] | 19% | 62% | 43% | 74% | 190 nM | 1.2 nM |  | 
CCN(C1CCN(c2ccc([C@@H]3c4ccc(O)cc4CC[C@@H]3c3ccccc3)cc2)CC1)[C@H]1CC[C@@H](C(=O)N2CCC3(CC2)COc2c3ccc3c2CN(C2CCC(=O)NC2=O)C3=O)CC1 (stereo partly drawn) [B43] | 54% | 62% | 57% | 80% | 232 nM | 4.04 nM |  | 
O=C1CCC(N2Cc3cc4c(cc3C2=O)CCC2(CN(C(=O)[C@H]3CC[C@H](CN5CCN(c6ccc([C@@H]7c8ccc(O)cc8CC[C@@H]7c7ccccc7)cc6)CC5)CC3)C2)O4)C(=O)N1 (stereo partly drawn) [C7] | 38% | 63% | 45% | 74% | 84.7 nM | 1.75 nM |  | 
O=C1CCC(N2Cc3c(ccc4c3OCC43CCN(C(=O)C4CCN(C5CCN(c6ccc([C@@H]7c8ccc(O)cc8CC[C@@H]7c7ccccc7)cc6)CC5)CC4)CC3)C2=O)C(=O)N1 (stereo partly drawn) [H22] | 32% | 64% | 56% | 73% | 3.5 nM | 1.57 nM |  | 
O=C1CCC(N2Cc3c(ccc4c3OCC43CCN(C4CCN(C(=O)C5CCN(c6ccc([C@@H]7c8ccc(O)cc8CC[C@@H]7c7ccccc7)cc6)CC5)CC4F)CC3)C2=O)C(=O)N1 (stereo partly drawn) [H42] | 49% | 77% | 37% | 73% | 9.28 nM | 1.32 nM |  | 
O=C1CCC(N2Cc3cc4c(cc3C2=O)OCC42CCN(CC3CCN(c4ccc([C@@H]5c6ccc(O)cc6CC[C@@H]5c5ccccc5)cc4)CC3)CC2)C(=O)N1 (stereo partly drawn) [J1] | 9% | -14% | -6% | -10% | 857 nM | 16.7 nM |  | 
